Assay results: ChEMBL document CHEMBL3045022, “The discovery of potential cyclin A/CDK2 inhibitors: a combination of 3D QSAR pharmacophore modeling, virtual screening, and molecular docking studies” (Med Chem Res, 2013)

Biological target: Cyclin-dependent kinase 2/cyclin A (Homo sapiens, UniProt P24941)
Assay: Inhibition of CDK2/cyclinA (unknown origin)
Assay type: protein-complex assay

SMILES	IC50
N#CCc1cccc(Nc2nc(N)c(N=O)c(OCC3CCCCC3)n2)c1	33 nM
N#Cc1c(N)nc(N)nc1OCC1CCCCC1	61000 nM
Nc1nc(N)c(-c2cccs2)c(OCC2CCCCC2)n1	55000 nM
COc1ccc(Nc2nc(N)c(C=O)c(OC(C)C)n2)cc1	1800 nM
N#CCc1ccc(Nc2nc(N)cc(OCC3CCCCC3)n2)cc1	24000 nM
CCN(CC)S(=O)(=O)c1ccc(Nc2ncc(N=O)c(OCC3CCCCC3)n2)cc1	86 nM
Brc1cccc(Nc2nccc(OCC3CCCCC3)n2)c1	26000 nM
Nc1nc(Nc2ccc(C(=O)O)cc2)nc(OCC2CCCCC2)c1N=O	110 nM
CSc1cccc(Nc2nc(N)c(N=O)c(OCC3CCCCC3)n2)c1	400 nM
NC(=O)c1ccc(Nc2ncc(N=O)c(OCC3CCCCC3)n2)cc1	34 nM
Nc1nc(Nc2ccc(S(N)(=O)=O)cc2)nc(OCC2CCCCC2)c1C=O	49 nM
COc1nc(N)nc(N)c1N=O	79000 nM
O=Nc1cnc(Nc2cccc(CO)c2)nc1OCC1CCCCC1	45 nM
Nc1nc(Nc2ccc(C(=O)O)cc2)nc(OCC2CCCCC2)c1C=O	610 nM
O=Nc1cnc(Nc2ccc(S(=O)(=O)NCC3CCCO3)cc2)nc1OCC1CCCCC1 (stereo not drawn)	8.1 nM
O=Nc1cnc(Nc2ccc(S(=O)(=O)Nc3nccs3)cc2)nc1OCC1CCCCC1	19 nM
CCOc1nc(Nc2ccc(S(N)(=O)=O)cc2)nc(N)c1C=O	49 nM
CC[C@@H](C)Oc1nc(Nc2ccc(S(N)(=O)=O)cc2)ncc1C=O	13.1 nM
CCN(CC)C(=O)c1ccc(Nc2nc(N)c(N=O)c(OCC3CCCCC3)n2)cc1	200 nM
O=Nc1cnc(Nc2cccc(Br)c2)nc1OCC1CCCCC1	500 nM
COc1cccc(Nc2ncc(N=O)c(OCC3CCCCC3)n2)c1	340 nM
CCOc1nc(Nc2ccc(OC)cc2)nc(N)c1C=O	1900 nM
CCOc1nc(Nc2ccc(S(N)(=O)=O)cc2)nc(N)c1N=O	93 nM
Nc1nc(Nc2ccc(S(N)(=O)=O)cc2)nc(OCC2CCCCC2)c1/C=N/O	117 nM
Nc1nc(N)c([N+](=O)[O-])c(OCC2CCCCC2)n1	8300 nM
Nc1nc(N)c(-c2ccco2)c(OCC2CCCCC2)n1	56300 nM
CC(C)Oc1nc(Nc2ccc(S(N)(=O)=O)cc2)nc(N)c1C=O	26 nM
COc1ccc(Nc2nc(N)c(/C=N/O)c(OCC3CCCCC3)n2)cc1	8300 nM
